{"source": "patent US20050171214A1", "about": "“Medicament for improving the failure of accommodation” (Fuji Chemical Industry Co., Ltd., priority 2001, published 2005)", "assay_type_in_all_cases": "in vivo, human", "key": {"[1]": {"tested_on": "VDT workers", "experiment": "Example 2: pattern visual evoked potentials (P100 amplitude and latency)", "description": "(§1) As a control, 13 persons who have not been administered astaxanthin and have not worked in a VDT operation were indicated as the A group. 26 VDT workers were divided into two groups at random. The B group (13 persons) was orally administered 5 mg of astaxanthin/day for 4 consecutive weeks while the C group (13 persons) was orally administered a placebo for 4 consecutive weeks. No significant difference was recognized in age among the three groups.\n(§2) A double-blind test was conducted for the B and C groups.\n(§3) Also, 26 workers were selected who had been engaged in a VDT operation for 4 hours per day, for 5 days (Monday to Friday every week) per week and for a year or more. Their eyes were better than twenty-twenty (20/20). All of them wore eyeglasses for accommodation during the VDT operation.\n(§4) A double-blind test was conducted with respect to the VDT workers. The VDT workers were divided into an astaxanthin-administration group (n=13, B group) and placebo-administration group (n=13, C group). There was no difference in age among the three groups (Table 2 shown below).\n(§5) An astaxanthin capsule (5 mg/capsule) was orally administrated to each of the B group subjects one time a day 30 minutes before supper.\n(§6) All of these measurement items were conducted with each right eye of the subjects at a.m. 9:00-12:00 on a Saturday.\nThe pattern visual evoked potential was recorded according to the method established by the International Society for Clinical Electrophysiology of Vision to measure one positive peak strength (P100) and the latency (the difference […] between N75 peak and P100 peak).\n(§7) The data on before and after administration were analyzed statistically using a paired t-test. Also, the data for the A and B groups and those for the A and C groups were measured in an unpaired test. The probability value is below 0.05 that is considered to be significant."}, "[2]": {"tested_on": "person having subjective symptoms of eyestrain or working for VDT operation", "experiment": "Example 1: double-blind accommodability test with an accommodometer, test food vs control food for 4 weeks", "settings": "intake of astaxanthin for 4 consecutive weeks; difference not recognized in control group", "source_text": "People satisfying the following selection standards were used as subjects.\n(1) A person having subjective symptoms of eyestrain or working for VDT operation, (2) 1.0 or more of both eyes in vision after correction. (3) 35-59 years old, (4) persons who do notusually take any medicines or health foods, (5) a person who can keep in compliance with all the test-related requirements and take the medical examinations stipulated by the test method.\nPersons who have retinal disorders or cataracts were excluded from the subjects.\nA test food with 5 mg /capsule of astaxanthin and a control food with 0 mg /capsule of astaxanthin were prepared. The test was conducted in a double-blind method.\nAfter completion of the accommodability test for the subjects using an accommodometer by which the change in the refraction value (accommodation reaction) during moving object can be measured continuously and objectively, and accommodation abnormalities including VDT syndrome can be detected clearly.\nA person in charge of the test prepared a subjects' name-list stratified by sex and the test results and handed it to a controller. The controller prepared an allocation table separating the subjects into test food group and control food group based on the name list. In addition, the controller stuck each label with a subject's name on the test food or control food according to the allocation table. […]"}, "[3]": {"tested_on": "VDT workers", "experiment": "Example 2: eyesight at 5 m and 35 cm using a Landolt ring", "settings": "B group, 5 mg/day orally for 4 weeks", "description": "as §3, §4, §5\nThe eyesight was measured at each distance of 5 m and 35 cm using a Landolt ring."}, "[4]": {"tested_on": "VDT workers", "experiment": "Example 2: systemic side effects during 4-week administration", "settings": "B group, 5 mg/day orally for 4 weeks", "description": "as §1, §5"}, "[5]": {"tested_on": "VDT workers", "experiment": "Example 2: critical flicker fusion (C.F.F. tester)", "description": "as §1, §2, §3, §4, §5, §6\nThe critical flicker fusion was determined by decreasing the frequency of the signals at a constant speed using a C.F.F. tester (a product of Yagami Co., Ltd.). There was used the average value of the three times value measured by the individual eyes of the subjects.\nas §7"}, "[6]": {"tested_on": "VDT workers", "experiment": "Example 2: eye-accommodability (near point minus far point, D'Acomo apparatus), double-blind vs placebo", "settings": "mean ± SD, dioptres", "description": "as §1, §2\nAlso, 26 workers were selected who had been engaged in a VDT operation for 4 hours per day, for 5 days (Monday to Friday every week) per week and for a year or more. […]\nThe eye-accommodability was evaluated by measurement of the near and far points.\nThe near point was measured with a D'Acomo apparatus (binocular opening constant point refraction near point ruler, a product of World Optical Corporation) according to the Uozato et al' method (Uozato H, Nagakawa A, Hirai H, Saishin M: A new near-point ruler using constant dioptric stimulus. Folia Ophthalmol Jpn 1988;39:1247-1248).\nThe far point was measured in the best-corrected refraction for each of the subjects.\nThe eye-accommodability (dioptres) was calculated by subtracting the far point (dioptres) from the near point (dioptres).\nThe data on before and after administration were analyzed statistically using a paired t-test. […]"}, "[7]": {"settings": "B group baseline, n = 13 eye, mean ± SD"}, "[8]": {"settings": "B group, 5 mg/day orally for 4 weeks, n = 13 eye, mean ± SD"}, "[9]": {"settings": "B group, 5 mg/day orally for 4 weeks, vs before administration"}}, "note": "Values joined by “and” are separate entries in the source; they are usually repeats but may differ in a detail not shown here. Identical values can stand only once.", "data": [{"smiles": "CC1=C(/C=C/C(C)=C/C=C/C(C)=C/C=C/C=C(C)/C=C/C=C(C)/C=C/C2=C(C)C(=O)C(O)CC2(C)C)C(C)(C)CC(O)C1=O", "note": "(stereo not drawn) [astaxanthin, 3,3′-dihydroxy-β,β-carotene-4,4′-dione]", "values": [{"measurement": "PVEP-P100 Amplitude (μV), before administration of astaxanthin", "setting": "[1]; [7]", "value": "5.8±1.7", "unit": "μV"}, {"measurement": "PVEP-P100 Latency (msec), before administration of astaxanthin", "setting": "[1]; [7]", "value": "102.5 ± 6.9", "unit": "ms"}, {"measurement": "PVEP-P100 Amplitude (μV), after administration of astaxanthin", "setting": "[1]; [8]", "value": "5.6±1.6", "unit": "μV"}, {"measurement": "PVEP-P100 Latency (msec), after administration of astaxanthin", "setting": "[1]; [8]", "value": "104 ± 7.4 ms and 104.8 ± 7.4 ms"}, {"measurement": "Change of amplitude of P100 in pattern visual evoked potentials after administration", "setting": "[1]; [9]", "value": "did not appreciably change"}, {"measurement": "Change of latency of P100 in pattern visual evoked potentials after administration", "setting": "[1]; [9]", "value": "did not appreciably change"}, {"measurement": "Change of eye-accommodability, before vs after intake", "setting": "[2]", "value": "increased in the test food group by a statistically significant difference"}, {"measurement": "Change of eyesight at distances of 5 m and 35 cm, before vs after administration", "setting": "[3]", "value": "did not appreciably change"}, {"measurement": "Systemic side effects", "setting": "[4]", "value": "no systemic side effects were recognized"}, {"measurement": "CFF (Hz), before administration of astaxanthin", "setting": "[5]; [7]", "value": "39.9 ± 5.3", "unit": "Hz"}, {"measurement": "CFF (Hz), after administration of astaxanthin", "setting": "[5]; [8]", "value": "38.4 ± 4.8", "unit": "Hz"}, {"measurement": "Change of critical flicker fusion after administration", "setting": "[5]; [9]", "value": "did not (appreciably) change"}, {"measurement": "Accommodability (D), before administration of astaxanthin", "setting": "[6]; B group baseline, n = 13 eye (right eye), p<0.05 lower than non-VDT A group (3.7 ± 1.5)", "value": "2.3 ± 1.4", "unit": "D"}, {"measurement": "Accommodability (D), after administration of astaxanthin", "setting": "[6]; B group, 5 mg astaxanthin/day orally for 4 consecutive weeks, n = 13 eye, p<0.01 vs before administration", "value": "2.8±1.6", "unit": "D"}]}]}
